Read-outs that look alike come from different tables or passages of the source.
Experiments:
[1] = system: stimulated primary human T cells; assay: T cell proliferation assay (rescue of proliferation in the presence of ATP); assay type: cell-based
Experimental: The aim of this study was to determine the potency of equilibrative nucleoside transporter 1 (ENT1) inhibitors to rescue proliferation by stimulated primary human T cells incubated in the presence of 100 uM Adenosine triphosphate (ATP), in baseline conditions (condition A) or in the presence of various proteins known to bind small molecules (condition B)
Condition B: X-VIVO15, 2% Human Serum Albumine (HSA) and 0.1% α-1-Acid Glycoprotein (AAG)
Cryopreserved purified human CD3+ T cells were thawed and washed twice with RPMI1640 medium, UltraGlutamine containing 10% hiFBS.
Cells were suspended in PBS containing 10% hiFBS. Cells were stained with CFSE by adding 2 μM solution in PBS, to get a final 1 μM CFSE solution. Cells were incubated while rotating for 5 minutes. Reaction was stopped by adding PBS with 10% FBS and cells were centrifuged for 5 minutes at 1500 rpm.
Cells were resuspended at 1.6×10^6 cells/mL, either in X-VIVO15 medium or in 4% Human Serum Albumin and 0.2% α-1-Acid Glycoprotein. 50 μL of cell suspension (8×10^4 T cells) was added to wells of sterile round-bottom 96-well plates. Cells were activated by adding 50 μL of anti-CD3 anti-CD28 coated microbeads, suspended either in XVIVO-15 medium or in 4% HSA and 0.2% α-1-Acid Glycoprotein, at a ratio of one microbead per two cells.
Serial dilutions of the ENT1 inhibitors were prepared in X-VIVO15 from 10 mM stock solutions in DMSO, and 50 μL was added to the wells.
ATP powder was diluted in X-VIVO15, and 50 μL of this compound was added to the wells to reach a final assay concentration of 100 μM. Final volume of 200 μL.
The experiments were also performed in 384 well plates—all volumes reduced by a factor of 4 (12.5 μL) with a final volume of 50 μL.
Experiments were performed in duplicate. The cells were placed in a 37° C. humidified tissue culture incubator with 5% CO2 for 72 hours for 96 well plates, 96 hours for 384 well plates After 72 or 96 hours, proliferation was measured determined by CFSE dilution via flow cytometry.

human ENT1 = molecular target: T1, human ENT1 (Homo sapiens, UniProt Q99808); assay: ENT1 binding assay (competition with Sahenta-DY647); conditions: JAR cells expressing ENT1; competition with Sahenta-DY647 (100 nM); 4° C.
T1 construct: JAR cells expressing ENT1 were bought from ATCC® (HTB-144TM); host or cells: JAR cells (human choriocarcinoma line, own knowledge)
T1 sequence (Q99808 1-456): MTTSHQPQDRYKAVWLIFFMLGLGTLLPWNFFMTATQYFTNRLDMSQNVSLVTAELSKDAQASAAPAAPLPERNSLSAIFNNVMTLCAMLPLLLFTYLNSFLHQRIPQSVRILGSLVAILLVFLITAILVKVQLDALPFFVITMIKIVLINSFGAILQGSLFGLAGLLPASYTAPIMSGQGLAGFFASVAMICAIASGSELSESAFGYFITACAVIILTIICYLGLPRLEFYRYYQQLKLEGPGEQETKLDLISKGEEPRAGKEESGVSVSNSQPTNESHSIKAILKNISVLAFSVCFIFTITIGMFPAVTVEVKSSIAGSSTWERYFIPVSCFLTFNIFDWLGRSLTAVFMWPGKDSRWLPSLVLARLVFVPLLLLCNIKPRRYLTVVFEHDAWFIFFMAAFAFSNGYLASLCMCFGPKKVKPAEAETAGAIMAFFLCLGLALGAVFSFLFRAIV
Experimental: The present assay aims at showing that the compounds of the present disclosure can bind to human ENT1. The principle of the assay is a competition between the compounds of this present disclosure and Sahenta-DY647, an ENT1 inhibitor that emits fluorescence (Ex=630 nm, Em=670 nm). By measuring the fluorescence at the end of the assay we could assess the binding potency of the compounds of the present disclosure.
JAR cells expressing ENT1 were bought from ATCC® (HTB-144TM). Cells were cultured in RPMI 1640 medium (LONZA®, #BE12-702F/U1) supplemented with 10% FBS (GIBCO®, #10270-106), 10 mM Hepes (LONZA®, #BE17-737E), 1 mM Sodium Pyruvate (LONZA®, #BE13-115E) and 2% Penicillin/Streptomycin (LONZA®, #DE17-603E) at 37° C. and 5% CO2. The assay was conducted on the following buffer: HBSS (LONZA®, #LO-527F) supplemented with 10 mM Hepes (LONZA®, #BE17-737E) and 0.1% BSA (Miltenyi®, #130-091-376) on the day of the assay.
JAR cells were resuspended in the described buffer. Compounds of the present disclosure and Sahenta-DY647 were diluted 200× in the described buffer.
A total of 50 000 cells were pre-incubated for 30 min at 4° C. with the compounds of the present disclosure before adding the corresponded IC90 of Sahenta-DY647 (100 nM) and incubate once more for 30 min at 4° C. The total volume of the reaction was 100 μL (50 μL of cells, 25 μL of the compounds of the present disclosure and 25 μL of Sahenta-DY647) in a 96 well plate, U-bottom (Greiner®, #650-180). The plates were washed 2× by centrifugation (4 min, 400 rcf at 4° C.) in the same buffer. Cells were re-suspended in 70 μL of the buffer and 50 μL was transferred to a Black 384 Optiplate (PerkinElmer®, #6007279). Fluorescence (Ex=630 nm, Em=670 nm) was acquired on a Spectramax i3x (Molecular Devices®).

[2] = Condition B: X-VIVO15, 2% Human Serum Albumine (HSA) and 0.1% α-1-Acid Glycoprotein (AAG), 100 μM ATP, read-out: (2) T Cell proliferation (Condition B) IC50
[3] = Homo sapiens, Condition A: X-VIVO15, 100 μM ATP, read-out: T Cell proliferation (Condition A) IC50

Compound | IC50 [1, 2] [nM] | IC50 [1, 3] [nM] | IC50 (human ENT1) [nM]
[2H]C([2H])([2H])Oc1cc(C(=O)O[C@@H]2CCCOc3cc(cc(OC)c3OC)C(=O)NCCCN3CCCN(CC2)CC3)cc(OC([2H])([2H])[2H])c1OC([2H])([2H])[2H] [Compound 17] | 1 to 20 | < 0.1 | 1 to 20
COc1cc2cc(c1OC)OCCCC(OCc1ccccc1)CCN1CCCN(CCCOC2=O)CC1 (stereo not drawn) [Compound 35] |  |  | 500 to 1000
COc1cc(C(=O)OC2CCCOc3cc(cc(OC)c3OC)C(=O)NCCN3CCCN(CC2)CC3)cc(OC)c1OC (stereo not drawn) [Compound 19] | 20 to 500 | < 1 | 1 to 20
COc1cc2cc(c1OC)OCCCC(n1ncc(-c3ccccc3)n1)CCN1CCCN(CCCOC2=O)CC1 (stereo not drawn) [Compound 28] | 20 to 500 | < 1 | 1 to 20
COc1cc2cc(c1OC)OCCCC(OC(=O)N1CCOCC1)CCN1CCCN(CCCOC2=O)CC1 (stereo not drawn) [Compound 26] |  |  | 1 to 20
COc1cc(C(=O)OC2CCCOc3cc(cc(OC)c3OC)COCCC3CCN(CC3)CC2)cc(OC)c1OC (stereo not drawn) [Compound 42] | 20 to 500 | < 1 | 1 to 20
COc1cc2cc(c1OC)OCCCC(n1cc(-c3ccccc3)cn1)CCN1CCCN(CCCOC2=O)CC1 (stereo not drawn) [Compound 29] | 20 to 500 | < 1 | 1 to 20
COc1cc(C(=O)OC2CCCOc3cc(cc(OC)c3OC)COCCCN3CCCN(CC2)CC3)cc(OC)c1OC (racemic) [Compound 3] | < 1 | < 0.1 | < 1
COc1cc(C(=O)OC2CCCOc3cc(cc(OC)c3OC)COCCN(C)C3CCN(CC2)CC3)cc(OC)c1OC (stereo not drawn) [Compound 41] | 20 to 500 | < 1 | 1 to 20
COc1cc2cc(c1OC)OCCCC(OC(=O)CCC(=O)N1CCOCC1)CCN1CCCN(CCCOC2)CC1 (stereo not drawn) [Compound 6] | > 500 | < 1 | 1 to 20
COc1cc(C(=O)OCCCN2CCCN(CCCOC(=O)c3cc(OC)c(OC)c(OC)c3)CC2)cc(OC)c1OC [Dilazep, dilazep, reference compound] | 20 to 500 | 1 to 20 | 
COc1cc2cc(c1OC)OCCCC(OC(=O)CCC(=O)N1CCOCC1)CCN1CCCN(CCCNC2=O)CC1 (stereo not drawn) [Compound 20] | > 500 | 1 to 20 | 20 to 500
COc1cc2cc(c1OC)OCCCC(OC(=O)c1cn(C)nn1)CCN1CCCN(CCCOC2=O)CC1 (stereo not drawn) [Compound 8] |  |  | 1 to 20
COc1cc(C(=O)OC2CCCOc3cc(cc(Cl)c3Cl)C(=O)NCCCN3CCCN(CC2)CC3)cc(OC)c1OC (stereo not drawn) [Compound 33] | > 500 | 1 to 20 | 20 to 500
COc1cc2cc(c1OC)OCCCC(OC(=O)c1ccn(C)n1)CCN1CCCN(CCCOC2=O)CC1 (stereo not drawn) [Compound 11] | > 500 | < 1 | 1 to 20
COc1cc2cc(c1OC)OCCCC(Oc1ncccn1)CCN1CCCN(CCCOC2=O)CC1 (stereo not drawn) [Compound 22] |  |  | 20 to 500
COc1cc(C(=O)OC2CCCOc3cc(cc(OC)c3OC)CCCCS(=O)(=O)N3CCCN(CC2)CC3)cc(OC)c1OC (stereo not drawn) [Compound 47] | 1 to 20 | < 1 | 1 to 20

Compound | IC50 [1, 2] [nM] | IC50 [1, 3] [nM] | IC50 (human ENT1) [nM]
COc1cc(C(=O)O[C@H]2CCCOc3cc(cc(OC)c3OC)COCCCN3CCCN(CC2)CC3)cc(OC)c1OC (single isomer, unassigned) [Compound 5] |  |  | 20 to 500
COc1cc2cc(c1OC)OCCCCCCN1CCCN(CCCOC2=O)CC1 [Compound 32] |  |  | 500 to 1000
COc1ccc(C(=O)OC2CCCOc3cc(cc(OC)c3OC)C(=O)OCCCN3CCCN(CC2)CC3)cc1OC (stereo not drawn) [Compound 16] | 1 to 20 | < 0.1 | 1 to 20
COc1ccc(C(=O)OC2CCCOc3cc(cc(OC)c3OC)C(=O)OCCCN3CCCN(CC2)CC3)cc1 (stereo not drawn) [Compound 13] |  |  | 1 to 20
COc1cc2cc(c1OC)OCCCC(O/N=C/c1ccccc1)CCN1CCCN(CCCOC2)CC1 (stereo not drawn) [Compound 1] |  |  | 20 to 500
COc1cc(C(=O)O[C@H]2CCOc3cc(cc(OC)c3OC)C(=O)NCCCN3CCCN(CC2)CC3)cc(OC)c1OC (stereo in doubt) [Compound 38] |  |  | 500 to 1000
COc1cc(C(=O)O[C@@H]2CCOc3cc(cc(OC)c3OC)C(=O)NCCCN3CCCN(CC2)CC3)cc(OC)c1OC [Compound 39] |  |  | 20 to 500
COc1cc(C(=O)OC2CCCOc3cc(cc(OC)c3OC)C#CCCS(=O)(=O)N3CCCN(CC2)CC3)cc(OC)c1OC (stereo not drawn) [Compound 46] |  |  | 20 to 500
COc1cc(C(=O)OC2CCCOc3cc(cc(OC)c3OC)C(=O)NCCC(=O)N3CCN(CC2)CC3)cc(OC)c1OC (stereo not drawn) [Compound 31] |  |  | 20 to 500
COc1cc2cc(c1OC)OCCCC(OC(=O)N1CCCCC1)CCN1CCCN(CCCOC2=O)CC1 (stereo not drawn) [Compound 27] |  |  | 1 to 20
COc1cccc(C(=O)OC2CCCOc3cc(cc(OC)c3OC)C(=O)OCCCN3CCCN(CC2)CC3)c1 (stereo not drawn) [Compound 14] |  |  | 1 to 20
Cn1nnc2cc(C(=O)OC3CCCOc4cc(cc(Cl)c4Cl)C(=O)NCCCN4CCCN(CC3)CC4)ccc21 (stereo not drawn) [Compound 34] |  |  | 500 to 1000
COc1cc2cc(c1OC)OCCCC(OC(=O)c1cnnn1C)CCN1CCCN(CCCOC2=O)CC1 (stereo not drawn) [Compound 7] |  |  | 1 to 20
COc1cc(C(=O)OC2CCCOc3cc(cc(OC)c3OC)CCCCCN3CCCN(CC2)CC3)cc(OC)c1OC (stereo not drawn) [Compound 45] |  |  | 1 to 20
COc1cc2cc(c1OC)OCCCC(Oc1ccn(C)n1)CCN1CCCN(CCCOC2=O)CC1 (stereo not drawn) [Compound 25] |  |  | 500 to 1000
COc1cc(C(=O)OC2CCCOc3cccc(c3)-c3cn(nn3)CCCN3CCCN(CC2)CC3)cc(OC)c1OC (stereo not drawn) [Compound 36] |  |  | 20 to 500
